21 compounds from US6306860A, “2,5-pyridinedicarboxylic acid derivatives” (Dong Wha Pharm. Inc. Co., Ltd., priority 1998, dated 2001) can be followed below.

Structures can show the parent of a compound that is named as a salt.

Assay [1] concerns the target T1, HBV polymerase (Hepatitis B virus genotype D subtype ayw, UniProt P03156).
T1 construct: made in house; host or cells: E. coli
The experiment in a line: Inhibitory activities against HBV polymerase (reverse transcriptase activity) in vitro. The class given is biochemical. The settings on record: read-out: Inhibitory activity of HBV-RT (%); for inhibition at 0.01 µg/mL: 0.01 μg/ml; for inhibition at 0.1 µg/mL: 0.1 μg/ml; for inhibition at 1 µg/mL: 1 μg/ml. Put shortly: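 Recombinant HBV polymerase expressed in E. coli was incubated with reaction mixture and test compound for 18~24 hours at 14° C.~30° C. Reverse transcriptase product, labelled with biotin- and DIG-modified nucleotide, detected ELISA-style with peroxidase anti-DIG antibody; inhibition judged relative to controls without compound.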

In assay [2] the target is T2, HIV reverse transcriptase (Human immunodeficiency virus type 1 group M subtype B, UniProt P04585).
T2 construct: purchased Boehringer Mannheim
Description: In vitro inhibition test against HIV reverse transcriptase. The class given is biochemical. Particulars: read-out: Inhibitory activity of HIV-RT (%); for inhibition at 0.1 µg/mL: 0.1 μg/ml; for inhibition at 1 µg/mL: 1 μg/ml. Put shortly:
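Non-radioactive colorimetric kit assay: 40 ng HIV-RT with poly(A)/oligo(dT)15 template/primer plus DIG-dUTP, biotin-dUTP and TTP, incubated with compound 1 h at 37 °C. Product captured on streptavidin, detected with anti-DIG-POD and ABTS; A405 read, with activity compared to a no-compound control.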

T1 sequence (P03156 whole entry): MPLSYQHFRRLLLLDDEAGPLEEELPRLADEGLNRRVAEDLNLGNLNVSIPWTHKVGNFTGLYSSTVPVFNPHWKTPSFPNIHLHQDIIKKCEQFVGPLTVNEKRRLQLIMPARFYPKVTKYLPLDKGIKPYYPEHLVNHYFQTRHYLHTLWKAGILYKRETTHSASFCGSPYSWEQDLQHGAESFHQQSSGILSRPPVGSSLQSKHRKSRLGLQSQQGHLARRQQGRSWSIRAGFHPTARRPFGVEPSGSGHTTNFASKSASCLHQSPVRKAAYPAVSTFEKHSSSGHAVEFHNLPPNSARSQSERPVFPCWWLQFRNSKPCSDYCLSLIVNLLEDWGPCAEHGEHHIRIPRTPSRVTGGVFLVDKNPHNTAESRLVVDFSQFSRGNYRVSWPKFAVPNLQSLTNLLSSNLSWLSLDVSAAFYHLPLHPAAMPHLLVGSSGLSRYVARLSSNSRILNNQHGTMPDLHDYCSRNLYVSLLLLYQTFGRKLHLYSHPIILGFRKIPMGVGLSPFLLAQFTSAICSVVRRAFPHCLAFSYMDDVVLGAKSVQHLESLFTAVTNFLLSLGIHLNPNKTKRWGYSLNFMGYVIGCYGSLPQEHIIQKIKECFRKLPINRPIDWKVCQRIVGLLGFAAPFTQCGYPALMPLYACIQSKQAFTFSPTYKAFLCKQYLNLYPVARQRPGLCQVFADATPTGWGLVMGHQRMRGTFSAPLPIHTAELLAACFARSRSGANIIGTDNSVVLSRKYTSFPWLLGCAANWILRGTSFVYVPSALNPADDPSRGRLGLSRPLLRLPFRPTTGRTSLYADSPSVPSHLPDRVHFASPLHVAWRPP

Turning to `CC(C)Nc1cccnc1N1CCN(C(=O)c2ccc(C(=O)Nc3cnccn3)cn2)CC1` [Exam. 72, 6-[1-[3-(isopropylamino)-2-pyridyl]piperazin-4-yl-carbonyl]-N-(pyrazine-2-yl)nicotinamide], in assay [1], the inhibition at 0.01 µg/mL was 16%, the inhibition at 0.1 µg/mL came to 53% and the inhibition at 1 µg/mL stood at 64%. In assay [2], the inhibition at 0.1 µg/mL is 66% and the inhibition at 1 µg/mL was found to be 83%.
Take `COc1ccc(NC(=O)c2ccc(C(=O)N3CCN(c4ncccc4NC(C)C)CC3)nc2)cn1` [Exam. 71, 6-[1-[3-(isopropylamino)-2-pyridyl]piperazin-4-yl-carbonyl]-N-(6-methoxy-3-pyridyl)nicotinamide]: in assay [1], the inhibition at 0.01 µg/mL was determined as 59%, the inhibition at 0.1 µg/mL amounted to 70% and the inhibition at 1 µg/mL was 83%. In addition, in assay [2], the inhibition at 0.1 µg/mL stood at 48% and the inhibition at 1 µg/mL is 74%.
With `Cc1ncc(CO)c(CNC(=O)c2ccc(C(=O)N3CCN(c4ncccc4NC(C)C)CC3)nc2)c1O` [Exam. 78], in assay [1], the inhibition at 0.01 µg/mL was found to be 15%, the inhibition at 0.1 µg/mL came out at 58% and the inhibition at 1 µg/mL amounted to 62%. In assay [2], the inhibition at 0.1 µg/mL came to 52% and the inhibition at 1 µg/mL was 70%.
In the same order, the values of `CC[C@H](CO)NC(=O)c1ccc(C(=O)N2CCN(CCO)CC2)nc1` [Exam. 94, 6-[1-(2-hydroxyethyl)piperazin-4-yl-carbonyl]-N-[(1R)-1-(hydroxymethyl)propyl]nicotinamide.HCl] are 20%, 51%, 72%, 30% and 62%.
In the case of `COCCN(CCOC)C(=O)c1ccc(C(=O)N2CCN(c3ncccc3NC(C)C)CC2)nc1` [Exam. 42, 5-[N,N-bis(2-methoxyethyl)carbamoyl]-2-[1-[3-(isopropylamino)-2-pyridyl]piperazin-4-yl-carbonyl]pyridine.HCl], in assay [1], the inhibition at 0.01 µg/mL is 15%, the inhibition at 0.1 µg/mL was found to be 52% and the inhibition at 1 µg/mL turned out to be 70%. Also, in assay [2], the inhibition at 0.1 µg/mL came to 20% and the inhibition at 1 µg/mL came to 54%.
As to `COC(CNC(=O)c1ccc(C(=O)N2CCN(c3ncccc3NC(C)C)CC2)nc1)OC` [Exam. 51, 5-[N-(2,2-dimethoxyethyl)carbamoyl]-2-[1-[3-(isopropylamino)-2-pyridyl]piperazin-4-yl-carbonyl]pyridine], in assay [1], the inhibition at 0.01 µg/mL is 57%, the inhibition at 0.1 µg/mL was 65% and the inhibition at 1 µg/mL amounted to 87%. For the same compound, in assay [2], the inhibition at 0.1 µg/mL came out at 30% and the inhibition at 1 µg/mL worked out at 51%.
On to `CC(C)Nc1cccnc1N1CCN(C(=O)c2ccc(C(=O)NCC3CCCO3)cn2)CC1` (stereo not drawn) [Exam. 53, 2-[1-[3-(isopropylamino)-2-pyridyl]piperazin-4-yl-carbonyl]-5-[N-(tetrahydrofuran-2-yl-methyl)carbamoyl]pyridine], for which, in assay [1], the inhibition at 0.01 µg/mL turned out to be 52%, the inhibition at 0.1 µg/mL stood at 60% and the inhibition at 1 µg/mL turned out to be 74%. In assay [2], the inhibition at 0.1 µg/mL was determined as 59% and the inhibition at 1 µg/mL amounted to 78%.
In the same order, the values of `CC(C)Nc1cccnc1N1CCN(C(=O)c2ccc(C(=O)NCc3cccnc3)cn2)CC1` [Exam. 76, 6-[1-[3-(isopropylamino)-2-pyridyl]piperazin-4-yl-carbonyl]-N-(3-pyridylmethyl)nicotinamide] are 30%, 53%, 62%, 57% and 82%.
As to `CC(C)NC(=O)c1ccc(C(=O)N2CCN(c3ncccc3NC(C)C)CC2)nc1` [Exam. 24, 2-[1-[3-(isopropylamino)-2-pyridyl]piperazin-4-yl-carbonyl]-5-(N-isopropylcarbamoyl)pyridine], in assay [1], the inhibition at 0.01 µg/mL amounted to 23%, the inhibition at 0.1 µg/mL worked out at 51% and the inhibition at 1 µg/mL is 65%. Further, in assay [2], the inhibition at 0.1 µg/mL was determined as 30% and the inhibition at 1 µg/mL is 66%.
With `CC(C)CNc1cccnc1N1CCN(C(=O)c2ccc(C(=O)NC(C)C)cn2)CC1` [Exam. 26, 2-[1-[3-(isobutylamino)-2-pyridyl]piperazin-4-yl-carbonyl]-5-(N-isopropylcarbamoyl)pyridine], in assay [1], the inhibition at 0.01 µg/mL came out at 58%, the inhibition at 0.1 µg/mL is 66% and the inhibition at 1 µg/mL is 90%. In assay [2], the inhibition at 0.1 µg/mL turned out to be 45% and the inhibition at 1 µg/mL came out at 60%.
In the same order, the values of `CC(C)NC(=O)c1ccc(C(=O)N2CCN(c3ncccc3N)CC2)nc1` [Exam. 27, 2-[1-(3-amino-2-pyridyl)piperazin-4-yl-carbonyl]-5-(N-isopropylcarbamoyl)pyridine] are 43%, 62%, 79%, 54% and 70%.
The corresponding values for `COCCNC(=O)c1ccc(C(=O)N2CCN(CCO)CC2)nc1` [Exam. 98, 6-[1-(2-hydroxyethyl)piperazin-4-yl-carbonyl]-N-(2-methoxyethyl)nicotinamide.HCl] are 57%, 70%, 85%, 61% and 76%.
For the compound `CCNc1cccnc1N1CCN(C(=O)c2ccc(C(=O)NCCOC)cn2)CC1` [Exam. 40, 2-[1-[3-(ethylamino)-2-pyridyl]piperazin-4-yl-carbonyl]-5-[N-(2-methoxyethyl)carbamoyl]-pyridine], in assay [1], the inhibition at 0.01 µg/mL amounted to 36%, the inhibition at 0.1 µg/mL was 57% and the inhibition at 1 µg/mL came out at 75%. Besides, in assay [2], the inhibition at 0.1 µg/mL amounted to 52% and the inhibition at 1 µg/mL worked out at 70%.
In the same order, the values of `CC(C)Nc1cccnc1N1CCN(C(=O)c2ccc(C(=O)NC(CO)CO)cn2)CC1` [Exam. 13, 5-[N-[Bis(hydroxymethyl)methyl]carbamoyl]-2-[1-[3-(isopropylamino)-2-pyridyl]piperazin-4-yl-carbonyl]pyridine] are 51%, 56%, 72%, 61% and 80%.
In the same order, the values of `CCNC(=O)c1ccc(C(=O)N2CCN(CCO)CC2)nc1` [Exam. 89, N-ethyl-6-[1-(2-hydroxyethyl)piperazin-4-yl-carbonyl]nicotinamide.HCl] are 35%, 50%, 68%, 35% and 62%.
In the same order, the values of `CC(C)Nc1cccnc1N1CCN(C(=O)c2ccc(C(=O)NCc3ccco3)cn2)CC1` [Exam. 79, N-(2-Furylmethyl)-6-[1-[3-(isopropylamino)-2-pyridyl]piperazin-4-yl-carbonyl]nicotinamide.HCl] are 54%, 63%, 78%, 20% and 54%.
With `COCCN(CCOC)C(=O)c1ccc(C(=O)N2CCN(CCO)CC2)nc1` [Exam. 100, N,N-bis(2-methoxyethyl)-6-[1-(2-hydroxyethyl)piperazin-4-yl-carbonyl]nicotinamide.HCl], in assay [1], the inhibition at 0.01 µg/mL was determined as 20%, the inhibition at 0.1 µg/mL worked out at 49% and the inhibition at 1 µg/mL was 77%. Also, in assay [2], the inhibition at 0.1 µg/mL is 40% and the inhibition at 1 µg/mL came to 64%.
The corresponding values for `CC(C)Nc1cccnc1N1CCN(C(=O)c2ccc(C(=O)NCCc3cccs3)cn2)CC1` [Exam. 81, 6-[1-[3-(isopropylamino)-2-pyridyl]piperazin-4-yl-carbonyl]-N-[2-(2-thienyl)ethyl]nicotinamide] are 44%, 60%, 80%, 54% and 75%.
`CC(C)CNc1cccnc1N1CCN(C(=O)c2ccc(C(=O)NCCO)cn2)CC1` [Exam. 22]: in assay [1], the inhibition at 0.01 µg/mL stood at 54%, the inhibition at 0.1 µg/mL stood at 60% and the inhibition at 1 µg/mL was 86%. In addition, in assay [2], the inhibition at 0.1 µg/mL is 50% and the inhibition at 1 µg/mL was found to be 60%.
`CC(C)Nc1cccnc1N1CCN(C(=O)c2ccc(C(=O)Nc3nncs3)cn2)CC1` [Exam. 69, 6-[1-[3-(isopropylamino)-2-pyridyl]piperazin-4-yl-carbonyl]-N-(1,3,4-thiadiazol-2-yl)nicotinamide]: in assay [1], the inhibition at 0.01 µg/mL amounted to 12%, the inhibition at 0.1 µg/mL amounted to 47% and the inhibition at 1 µg/mL is 64%. In addition, in assay [2], the inhibition at 0.1 µg/mL was determined as 35% and the inhibition at 1 µg/mL was found to be 67%.
In the case of `CC(C)Nc1cccnc1N1CCN(C(=O)c2ccc(C(=O)NCCOCCO)cn2)CC1` [Exam. 48, 5-[N-[2-(2-hydroxyethoxy)ethyl]carbamoyl]-2-[1-[3-(isopropylamino)-2-pyridyl]piperazin-4-yl-carbonyl]pyridine], in assay [1], the inhibition at 0.01 µg/mL was 52%, the inhibition at 0.1 µg/mL was determined as 66% and the inhibition at 1 µg/mL amounted to 79%. In assay [2], the inhibition at 0.1 µg/mL came to 41% and the inhibition at 1 µg/mL was 52%.
